In US10221163B2 (priority 2015, dated 2019):
Like-named read-outs stand apart in the source and are kept apart here.

Assays:
[1] = test system: Pseudomonas aeruginosa efflux+ (MB9798), IMP-1; format: cell-based; details: concentration restoring susceptibility to imipenem at 2 μg/mL in the presence of a class A, C, D serine β-lactamase inhibitor closely related to relebactam
How it was run: (§1)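 PAO1 pair, broth microdilution; fixed β-lactam (imipenem/ceftazidime) at ~CLSI breakpoint + fixed class A/C BLI for AmpC; serial MBLi titration; endpoint = MBLi conc. restoring susceptibility; MB9798:MB9799 ratio = efflux liability.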

[2] = test system: Pseudomonas aeruginosa MB9798 vs MB9799; details: ratio MITC95 PA_9798/MITC95 PA_9799
How it was run: as §1

NDM-1 = NDM-1 (Klebsiella pneumoniae, UniProt C7C422); experiment: biochemical; format: biochemical; details: fluorescence assay, CCF2-FA substrate, 1 pM enzyme, 2 hours at 25° C.; read-out: NDM-1 IC50
Sequence of NDM-1 (C7C422 whole entry, looked up, species assumed): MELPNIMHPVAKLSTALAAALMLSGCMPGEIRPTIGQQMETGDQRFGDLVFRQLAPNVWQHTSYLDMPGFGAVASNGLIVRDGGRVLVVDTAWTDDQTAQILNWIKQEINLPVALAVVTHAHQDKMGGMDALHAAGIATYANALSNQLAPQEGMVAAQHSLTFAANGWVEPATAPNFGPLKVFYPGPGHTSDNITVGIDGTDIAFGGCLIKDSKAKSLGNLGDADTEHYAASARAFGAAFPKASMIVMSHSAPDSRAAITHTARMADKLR
How it was run: (§2)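 Semi-log dose-response curves, fitted with a 4-parameter model, gave IC50s. The underlying signal was CCF2-FA fluorescence following 2 hours at 25° C with enzyme, substrate and inhibitor combined.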

IMP-1 = IMP-1 (Serratia marcescens, UniProt P52699); experiment: biochemical; format: biochemical; details: fluorescence assay, CCF2-FA substrate, 2 pM enzyme, 2 hours at 25° C.; read-out: IMP-1 IC50
Sequence of IMP-1 (P52699 whole entry, looked up, species assumed): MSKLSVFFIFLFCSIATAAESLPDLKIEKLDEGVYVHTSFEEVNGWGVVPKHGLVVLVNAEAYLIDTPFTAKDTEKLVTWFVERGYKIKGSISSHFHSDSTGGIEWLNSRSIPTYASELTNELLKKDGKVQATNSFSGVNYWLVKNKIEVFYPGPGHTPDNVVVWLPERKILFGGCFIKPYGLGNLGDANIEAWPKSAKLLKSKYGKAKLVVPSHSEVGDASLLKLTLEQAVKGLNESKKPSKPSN
How it was run: as §2

VIM-1 = VIM-1 (Pseudomonas aeruginosa (strain ATCC 15692 / DSM 22644 / CIP 104116 / JCM 14847 / LMG 12228 / 1C / PRS 101 / PAO1), UniProt A0A0F7KYQ8); experiment: biochemical; details: CCF2-FA substrate, 30 pM enzyme, 2 hours at 25° C.
How it was run: as §2

[3] = test system: Klebsiella pneumoniae expressing VIM-1 (IHMA599644); format: cell-based; details: VIM-1 strain IHMA599644, with imipenem 1 μg/ml, 95% inhibition of growth
How it was run: (§3)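 Colonies grown overnight on blood agar at 35° C were suspended in saline, diluted 1:100 into 1.1×CAMHB and dispensed. Imipenem was added to 1 μg/ml, then test compound. After 22 hours to 24 hours at 35° C, absorbance was recorded.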

[4] = test system: Escherichia coli expressing NDM-1 (CLB30005, CLB30016); format: cell-based; details: NDM-1 strain, with imipenem 1 μg/ml, 95% inhibition of growth
How it was run: as §3

[5] = test system: Serratia marcescens expressing IMP-1 (CL5741); format: cell-based; details: IMP-1 strain CL5741, with imipenem 1 μg/ml, 95% inhibition of growth
How it was run: as §3

[6] = test system: Pseudomonas aeruginosa efflux− (MB9799), IMP-1; format: cell-based; details: concentration restoring susceptibility to imipenem at 2 μg/mL in the presence of a class A, C, D serine β-lactamase inhibitor closely related to relebactam
How it was run: as §1

[7] = fluorescence assay, read-out: VIM-1 IC50

Row | Structure (SMILES) | P. aeruginosa expressing IMP-1, efflux + (MB9798) MITC95 [1] [µM] | Efflux ratio [2] | IC50 (NDM-1) [nM] | IC50 (IMP-1) [nM] | IC50 (VIM-1; VIM-1 IC50, fluorescence assay) [nM] | Klebsiella pneumoniae MITC95 [3] [µM] | Escherichia coli MITC95 [4] [µM] | Serratia marcescens MITC95 [5] [µM] | P. aeruginosa expressing IMP-1, efflux − (MB9799) MITC95 [6] [µM] | IC50 (VIM-1; [7]) [nM]
1 | Cc1ccc(-c2ccc(S(=O)(=O)N[C@@H]3CCNC3)c(S(N)(=O)=O)c2-c2nn[nH]n2)c2nc(N)[nH]c12 [Example 285, (R)-4-(2-amino-7-methyl-1H-benzo[d]imidazol-4-yl)-N1-(pyrrolidin-3-yl)-3-(2H-tetrazol-5-yl)benzene-1,2-disulfonamide] | 0.3906 | 1.00 | 0.0295 | 0.318 | 0.0916 | 0.7813 | 0.7813 | 0.7813 | 0.3906 | –
2 | Nc1ccc2cccc(-c3ccc(S(=O)(=O)N[C@@H]4CCNC4)c(S(N)(=O)=O)c3-c3nn[nH]n3)c2n1 [Example 286, (R)-4-(2-aminoquinolin-8-yl)-N1-(pyrrolidin-3-yl)-3-(2H-tetrazol-5-yl)benzene-1,2-disulfonamide] | 0.9766 | 1.25 | 0.0207 | 0.122 | – | 1.172 | 1.953 | 0.7813 | 0.7813 | 0.0877
3 | NS(=O)(=O)c1c(S(=O)(=O)N[C@@H]2CCNC2)ccc(-c2cccc3ncccc23)c1-c1nn[nH]n1 [Example 287, (R)-N1-(pyrrolidin-3-yl)-4-(quinolin-5-yl)-3-(2H-tetrazol-5-yl)benzene-1,2-disulfonamide] | 1.563 | 1.00 | 0.0422 | 0.617 | – | 3.125 | 1.563 | 1.563 | 1.563 | 0.165
4 | Nc1cc(-c2ccc(S(=O)(=O)N[C@@H]3CCNC3)c(S(N)(=O)=O)c2-c2nn[nH]n2)ccn1 [Example 288, (R)-4-(2-aminopyridin-4-yl)-N1-(pyrrolidin-3-yl)-3-(2H-tetrazol-5-yl)benzene-1,2-disulfonamide] | 1.563 | 2.00 | 0.0985 | 0.462 | – | 1.563 | 0.7813 | 1.563 | 0.7813 | 0.0781
5 | NCCn1nnc2c(-c3ccc(S(=O)(=O)N[C@@H]4CCNC4)c(S(N)(=O)=O)c3-c3nn[nH]n3)cccc21 [Example 289] | 1.563 | 2.00 | 0.249 | 1.22 | – | 1.563 | 0.7813 | 1.563 | 0.7813 | 0.104
6 | NCc1csc(Nc2cccc(-c3ccc(S(=O)(=O)N[C@@H]4CCNC4)c(S(N)(=O)=O)c3-c3nn[nH]n3)c2)n1 [Example 290, (R)-3′-((4-(aminomethyl)thiazol-2-yl)amino)-N4-(pyrrolidin-3-yl)-2-(2H-tetrazol-5-yl)-[1,1′-biphenyl]-3,4-disulfonamide] | 0.7813 | 2.00 | 0.0873 | 0.448 | 0.104 | 0.7813 | 0.1953 | 0.7813 | 0.3906 | –
7 | NS(=O)(=O)c1c(S(=O)(=O)N[C@@H]2CCNC2)ccc(-c2cccn3ccnc23)c1-c1nn[nH]n1 [Example 291, (R)-4-(imidazo[1,2-a]pyridin-8-yl)-N1-(pyrrolidin-3-yl)-3-(2H-tetrazol-5-yl)benzene-1,2-disulfonamide] | 0.7813 | 1.00 | 0.0505 | 0.169 | 0.0694 | 3.125 | 0.7813 | 1.563 | 0.7813 | –
8 | NC(=O)c1nc2c(-c3ccc(S(=O)(=O)N[C@H]4CCNC4)c(S(N)(=O)=O)c3-c3nn[nH]n3)cccc2[nH]1 [Example 292, (S)-4-(4-(N-(pyrrolidin-3-yl)sulfamoyl)-3-sulfamoyl-2-(2H-tetrazol-5-yl)phenyl)-1H-benzo[d]imidazole-2-carboxamide] | 0.7813 | 0.50 | 0.0453 | 0.672 | – | 3.125 | 1.563 | 3.125 | 1.563 | 0.146
9 | Nc1nc(-c2cccc(-c3ccc(S(=O)(=O)N[C@H]4CCNC4)c(S(N)(=O)=O)c3-c3nn[nH]n3)c2)c[nH]1 [Example 294, (S)-3′-(2-amino-1H-imidazol-4-yl)-N4-(pyrrolidin-3-yl)-2-(2H-tetrazol-5-yl)-[1,1′-biphenyl]-3,4-disulfonamide] | 1.563 | 2.00 | 0.197 | 1.72 | 0.742 | 1.563 | 0.3906 | 0.7813 | 0.7813 | –
10 | CNc1nc2c(-c3ccc(S(=O)(=O)N[C@H]4CCNC4)c(S(N)(=O)=O)c3-c3nn[nH]n3)cccc2[nH]1 [Example 295, (S)-4-(2-(methylamino)-1H-benzo[d]imidazol-4-yl)-N1-(pyrrolidin-3-yl)-3-(2H-tetrazol-5-yl)benzene-1,2-disulfonamide] | 0.7813 | 1.00 | 0.0561 | 0.775 | – | 1.563 | 0.7813 | 0.7813 | 0.7813 | 0.172
11 | N[C@H](CO)CNS(=O)(=O)c1ccc(-c2cccc3[nH]cnc23)c(-c2nn[nH]n2)c1S(N)(=O)=O [Example 296, (S)—N^1-(2-amino-3-hydroxypropyl)-4-(1H-benzo[d]imidazol-4-yl)-3-(2H-tetrazol-5-yl)benzene-1,2-disulfonamide] | 0.7813 | 1.00 | 0.0409 | 0.198 | – | 3.125 | 1.563 | 1.563 | 0.7813 | 0.184
12 | Nc1ccc(-c2ccc(S(=O)(=O)NC[C@H](N)CO)c(S(N)(=O)=O)c2-c2nn[nH]n2)cn1 [Example 297, (S)—N^1-(2-amino-3-hydroxypropyl)-4-(6-aminopyridin-3-yl)-3-(2H -tetrazol-5-yl) benzene-1,2-disulfonamide] | 0.7813 | 1.00 | 0.331 | 0.569 | – | 1.563 | 0.3906 | 0.7813 | 0.7813 | 0.423
13 | NC[C@@H](O)CNS(=O)(=O)c1ccc(-c2cccc3[nH]c(N)nc23)c(-c2nn[nH]n2)c1S(N)(=O)=O [Example 298, (R)-4-(2-amino-1H-benzo[d]imidazol-4-yl)-N1-(3-amino-2-hydroxypropyl)-3-(2H-tetrazol-5-yl)-benzene-1,2-disulfonamide] | 0.3555 | 0.69 | 0.0573 | 0.671 | – | 1.031 | 0.2786 | 0.4531 | 0.5156 | 0.135
